Legend:
Conditions in all cases: incubation time: 72 h
MDA-MB-468 [1] = test: normalised response (% of control), CellTiter-Glo; higher = more viable cells (100 = DMSO, 0 = benzethonium chloride kill control)
Outline: (§1)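 Breast cancer cell lines were exposed for 72 h in 384-well plates to compound at 5 concentrations, 10-fold apart, covering a 10,000-fold range fixed for each compound. Plates were read for CellTox Green fluorescence and CellTiter-Glo luminescence and normalised to 0.1 % DMSO (100) and a positive kill control (0). Each value is the normalised signal at one concentration of the series.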

CAL-51 [2] = test: as above
Outline: as §1

HCC1937 [3] = test: as above
Outline: as §1

DU-4475 [4] = test: as above
Outline: as §1

MDA-MB-453 [5] = test: as above
Outline: as §1

CAL-148 [6] = test: as above
Outline: as §1

Hs578T [7] = test: as above
Outline: as §1

SK-BR-3 = test: as above
Outline: as §1

MFM-223 [8] = test: as above
Outline: as §1

MCF-10A [9] = test: as above
Outline: as §1

MDA-MB-436 [10] = test: as above
Outline: as §1

BT-549 [11] = test: as above
Outline: as §1

MDA-MB-231 [12] = test: as above
Outline: as §1

CAL-85-1 [13] = test: as above
Outline: as §1

HDQ-P1 [14] = test: as above
Outline: as §1

BT-474 [15] = test: as above
Outline: as §1

HCC1599 [16] = test: as above
Outline: as §1

CAL-120 [17] = test: as above
Outline: as §1

HCC1143 [18] = test: as above
Outline: as §1

MDA-MB-468 [19] = test: normalised response (% of control), CellTox Green; higher = less cell death (100 = DMSO, 0 = benzethonium chloride kill control)
Outline: as §1

CAL-51 [20] = test: as above
Outline: as §1

HCC1937 [21] = test: as above
Outline: as §1

DU-4475 [22] = test: as above
Outline: as §1

MDA-MB-453 [23] = test: as above
Outline: as §1

CAL-148 [24] = test: as above
Outline: as §1

Hs578T [25] = test: as above
Outline: as §1

MFM-223 [26] = test: as above
Outline: as §1

MCF-10A [27] = test: as above
Outline: as §1

MDA-MB-436 [28] = test: as above
Outline: as §1

BT-549 [29] = test: as above
Outline: as §1

MDA-MB-231 [30] = test: as above
Outline: as §1

CAL-85-1 [31] = test: as above
Outline: as §1

HDQ-P1 [32] = test: as above
Outline: as §1

BT-474 [33] = test: as above
Outline: as §1

HCC1599 [34] = test: as above
Outline: as §1

CAL-120 [35] = test: as above
Outline: as §1

HCC1143 [36] = test: as above
Outline: as §1

Row | Structure (SMILES) | normalised response (MDA-MB-468 [1]) [%] | normalised response (CAL-51 [2]) [%] | normalised response (HCC1937 [3]) [%] | normalised response (DU-4475 [4]) [%] | normalised response (MDA-MB-453 [5]) [%] | normalised response (CAL-148 [6]) [%] | normalised response (Hs578T [7]) [%] | normalised response (SK-BR-3) [%] | normalised response (MFM-223 [8]) [%] | normalised response (MCF-10A [9]) [%] | normalised response (MDA-MB-436 [10]) [%] | normalised response (BT-549 [11]) [%] | normalised response (MDA-MB-231 [12]) [%] | normalised response (CAL-85-1 [13]) [%] | normalised response (HDQ-P1 [14]) [%] | normalised response (BT-474 [15]) [%] | normalised response (HCC1599 [16]) [%] | normalised response (CAL-120 [17]) [%] | normalised response (HCC1143 [18]) [%] | normalised response (MDA-MB-468 [19]) [%] | normalised response (CAL-51 [20]) [%] | normalised response (HCC1937 [21]) [%] | normalised response (DU-4475 [22]) [%] | normalised response (MDA-MB-453 [23]) [%] | normalised response (CAL-148 [24]) [%] | normalised response (Hs578T [25]) [%] | normalised response (MFM-223 [26]) [%] | normalised response (MCF-10A [27]) [%] | normalised response (MDA-MB-436 [28]) [%] | normalised response (BT-549 [29]) [%] | normalised response (MDA-MB-231 [30]) [%] | normalised response (CAL-85-1 [31]) [%] | normalised response (HDQ-P1 [32]) [%] | normalised response (BT-474 [33]) [%] | normalised response (HCC1599 [34]) [%] | normalised response (CAL-120 [35]) [%] | normalised response (HCC1143 [36]) [%]
1 | CC(C)n1nc(-c2ccc3oc(N)nc3c2)c2c(N)ncnc21 [INK128] (100 nM) | 39.5 | 29.3 | 59.7 | 66 | 37.2 | 32.7 | 35.1 | 22.6 | 32.2 | 43.5 | 48.6 | 30.7 | 50.3 | 35.4 | 42.6 | 50.4 | 68 | 30.6 | 39.9 | 137 | 87.6 | 96.1 | 94 | 26 | 58.8 | 65.8 | 93.9 | 95.8 | 94.4 | 115 | 108 | 101 | 108 | 96.5 | 95.5 | 97.1 | 8.7
2 | N[C@@H](Cc1ccc(N(CCCl)CCCl)cc1)C(=O)O [Melphalan] (1250 nM) | 0.81 | 0.26 | 4.2 | 0 | 0.2 | 7.68 | 16.4 | -0.01 | 0.49 | 0.24 | 9.28 | 22.1 | 0.06 | 0.23 | 1.18 | 1.75 | 2.61 | 50 | 34.5 | -18.1 | -30.1 | 18.1 | 51.8 | 25.6 | 4.59 | 35.8 | 10.1 | -50.4 | 84 | 28.1 | -55.7 | -12 | -17.2 | -13.4 | 45.5 | 72.2 | 95.9
3 | CO[C@H]1C[C@@H]2CC[C@@H](C)[C@@](O)(O2)C(=O)C(=O)N2CCCC[C@H]2C(=O)O[C@H]([C@H](C)C[C@@H]2CC[C@@H](O)[C@H](OC)C2)CC(=O)[C@H](C)/C=C(\C)[C@@H](O)[C@@H](OC)C(=O)[C@H](C)C[C@H](C)/C=C/C=C/C=C/1C [Sirolimus] (10 nM) | 51.8 | 65.5 | 81.5 | 88.5 | 66.2 | 67.1 | 67.5 | 66.4 | 70.9 | 102 | 79.1 | 58.3 | 93.9 | 63 | 82.8 | 83.5 | 98.8 | 67.3 | 69.1 | 157 | 104 | 97.7 | 102 | 107 | 52.9 | 59.7 | 91.1 | 104 | 69.6 | 87.2 | 116 | 108 | 109 | 94.8 | 90.7 | 105 | 115
